# Measurements as given in ChEMBL document CHEMBL1201862, “PubChem BioAssay data set” (2004).
# Activity calls are given as the source filed them.
# Legend:
# INS1 = assay: beta cell apoptosis inhibitors, cytokine rescue, dose response, luminescence, retest (AID 449756); format: functional, cell-based; settings: Rattus norvegicus;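 also: cell death triggered by IL-1 beta plus TNF-alpha plus IFN-gamma mixture; protective hits raise ATP signal compared with cytokine alone wells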
# [1] = target: T1, Short transient receptor potential channel 4 (Mus musculus, UniProt Q9QUQ5); assay: mouse TRPC4 channel inhibitors, dose response, cell-based, HEK293 TRPC4/mu-opioid, Fluo-4 calcium (AID 434942); format: functional;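 also: potency of inhibitors blocking the TRPC4 calcium response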
# T1 sequence (Q9QUQ5 whole entry): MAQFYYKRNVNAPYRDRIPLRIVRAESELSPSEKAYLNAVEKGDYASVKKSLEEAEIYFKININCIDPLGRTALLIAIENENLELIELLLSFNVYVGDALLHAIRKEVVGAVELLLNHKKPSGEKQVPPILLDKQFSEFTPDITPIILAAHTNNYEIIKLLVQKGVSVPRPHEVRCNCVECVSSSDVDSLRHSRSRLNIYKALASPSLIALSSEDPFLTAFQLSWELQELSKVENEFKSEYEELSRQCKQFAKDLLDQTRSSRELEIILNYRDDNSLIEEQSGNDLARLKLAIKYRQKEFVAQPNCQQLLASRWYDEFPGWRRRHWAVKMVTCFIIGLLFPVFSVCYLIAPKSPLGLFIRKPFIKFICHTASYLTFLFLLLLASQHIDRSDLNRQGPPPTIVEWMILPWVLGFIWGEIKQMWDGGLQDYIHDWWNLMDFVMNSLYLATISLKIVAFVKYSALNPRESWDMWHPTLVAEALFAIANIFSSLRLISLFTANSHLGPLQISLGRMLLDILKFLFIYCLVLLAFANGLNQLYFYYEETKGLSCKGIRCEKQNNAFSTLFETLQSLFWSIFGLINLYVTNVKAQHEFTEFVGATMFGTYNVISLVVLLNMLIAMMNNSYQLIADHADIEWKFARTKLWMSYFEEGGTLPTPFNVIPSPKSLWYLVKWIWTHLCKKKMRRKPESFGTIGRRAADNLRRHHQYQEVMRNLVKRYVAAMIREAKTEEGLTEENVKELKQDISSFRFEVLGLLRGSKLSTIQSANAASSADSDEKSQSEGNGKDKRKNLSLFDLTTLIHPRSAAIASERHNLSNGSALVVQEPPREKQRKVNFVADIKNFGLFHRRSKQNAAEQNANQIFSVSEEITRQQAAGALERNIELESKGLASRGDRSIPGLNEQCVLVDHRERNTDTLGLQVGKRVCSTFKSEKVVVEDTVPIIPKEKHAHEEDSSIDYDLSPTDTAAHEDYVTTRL
# [2] = THP-1 cell cytotoxicity, dose response, cytotoxicity control for Vif-APOBEC3G degradation inhibitor project, THP-1 cells (AID 1117359); format: functional; settings: Human immunodeficiency virus 1, THP-1
# [3] = target: FAD-linked sulfhydryl oxidase ALR (Homo sapiens, UniProt P55789); assay: inhibitors of human ALR sulfhydryl oxidase, dose response, biochemical, H2O2 detection, luminescence, cherry-pick (AID 493248)
# Sequence of FAD-linked sulfhydryl oxidase ALR (P55789 whole entry): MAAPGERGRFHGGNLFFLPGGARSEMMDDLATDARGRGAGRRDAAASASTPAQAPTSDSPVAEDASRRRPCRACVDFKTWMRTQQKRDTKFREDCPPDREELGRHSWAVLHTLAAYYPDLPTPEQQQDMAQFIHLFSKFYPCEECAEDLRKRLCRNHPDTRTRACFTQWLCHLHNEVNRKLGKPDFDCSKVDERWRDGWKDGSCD
# Genome polyprotein = Genome polyprotein (dengue virus type 2, UniProt P29990); assay: Dengue-2 NS5 methyltransferase inhibitors, primary screen, biochemical, confirmation dose response (AID 588689); format: functional
# Sequence of Genome polyprotein (P29990 2492-3391 limits assumed): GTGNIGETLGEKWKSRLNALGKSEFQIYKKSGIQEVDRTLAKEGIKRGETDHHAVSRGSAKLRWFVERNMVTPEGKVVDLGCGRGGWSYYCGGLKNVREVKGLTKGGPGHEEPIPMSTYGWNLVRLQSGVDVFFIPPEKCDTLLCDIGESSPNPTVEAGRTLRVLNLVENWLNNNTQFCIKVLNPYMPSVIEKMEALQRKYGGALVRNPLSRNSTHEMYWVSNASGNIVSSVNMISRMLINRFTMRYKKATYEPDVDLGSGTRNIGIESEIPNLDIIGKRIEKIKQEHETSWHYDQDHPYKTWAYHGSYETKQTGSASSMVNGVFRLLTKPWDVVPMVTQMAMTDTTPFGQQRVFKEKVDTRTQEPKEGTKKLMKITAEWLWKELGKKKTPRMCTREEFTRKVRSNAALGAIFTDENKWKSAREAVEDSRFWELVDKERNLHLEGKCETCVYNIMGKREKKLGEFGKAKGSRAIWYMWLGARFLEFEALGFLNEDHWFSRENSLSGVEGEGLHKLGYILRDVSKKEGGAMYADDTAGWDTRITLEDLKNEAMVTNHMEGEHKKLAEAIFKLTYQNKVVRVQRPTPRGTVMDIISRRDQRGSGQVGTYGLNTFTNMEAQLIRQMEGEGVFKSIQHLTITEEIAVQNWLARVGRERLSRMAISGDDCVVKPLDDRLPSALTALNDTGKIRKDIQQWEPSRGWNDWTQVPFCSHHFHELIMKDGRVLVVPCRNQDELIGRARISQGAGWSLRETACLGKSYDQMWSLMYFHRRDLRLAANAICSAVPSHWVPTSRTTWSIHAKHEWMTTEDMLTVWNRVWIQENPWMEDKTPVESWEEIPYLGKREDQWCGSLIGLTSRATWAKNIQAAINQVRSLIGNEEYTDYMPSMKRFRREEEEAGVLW
# [4] = target: T2, Corticotropin-releasing factor receptor 2/Corticotropin-releasing factor-binding protein (Homo sapiens, UniProt P24387+Q13324); assay: activators of CRF receptor 2 with binding protein – uHTS hits, confirmation (AID 602473); format: functional; settings: read-out: EC50_Mean
# T2 sequence (Q13324 whole entry): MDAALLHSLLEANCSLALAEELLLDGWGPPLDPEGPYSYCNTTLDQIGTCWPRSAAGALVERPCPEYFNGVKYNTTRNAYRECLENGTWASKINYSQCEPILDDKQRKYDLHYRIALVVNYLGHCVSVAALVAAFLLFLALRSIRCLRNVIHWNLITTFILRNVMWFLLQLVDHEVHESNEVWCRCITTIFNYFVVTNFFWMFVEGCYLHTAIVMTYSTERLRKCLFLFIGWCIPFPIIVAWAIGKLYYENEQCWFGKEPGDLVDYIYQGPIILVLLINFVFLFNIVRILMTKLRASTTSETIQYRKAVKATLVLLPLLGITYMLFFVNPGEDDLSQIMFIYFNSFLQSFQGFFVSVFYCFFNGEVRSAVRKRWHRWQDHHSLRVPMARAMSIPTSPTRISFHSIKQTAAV
# T2 sequence (P24387 whole entry): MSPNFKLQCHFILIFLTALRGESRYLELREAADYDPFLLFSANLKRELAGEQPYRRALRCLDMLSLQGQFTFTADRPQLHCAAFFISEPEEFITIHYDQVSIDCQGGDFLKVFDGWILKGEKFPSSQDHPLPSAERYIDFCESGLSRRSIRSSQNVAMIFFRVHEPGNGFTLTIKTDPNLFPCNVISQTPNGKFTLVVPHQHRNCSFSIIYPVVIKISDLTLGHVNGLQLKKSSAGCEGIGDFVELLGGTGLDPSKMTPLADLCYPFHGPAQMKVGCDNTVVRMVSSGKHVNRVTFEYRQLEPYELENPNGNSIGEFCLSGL
# Protein Tat = target: T3, Protein Tat (Human immunodeficiency virus type 1 group M subtype B (isolate HXB2)(HIV-1), UniProt P04608); format: functional;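 also: tat binding to TAR RNA read out by fluorescence polarization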
# T3 sequence (P04608 whole entry): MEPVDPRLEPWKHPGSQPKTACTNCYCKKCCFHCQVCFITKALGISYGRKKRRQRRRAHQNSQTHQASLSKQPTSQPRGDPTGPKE
# [5] = target: T2, Corticotropin-releasing factor receptor 2/Corticotropin-releasing factor-binding protein; assay: Dose Response confirmation of uHTS hits for small molecule antagonists of the CRF-binding protein and CRF-R2 receptor complex.; format: functional; settings: read-out: IC50_Mean
# [6] = A cytotoxicity screen of small molecule inhibitors of the PhoP region in Salmonella typhi identified in the primary screen. [Related pubchem assays: 1850, 1864, 1985 ]; format: functional
# [7] = inhibitors of intracellular T. cruzi replication, confirmation, NIH3T3 host cells, beta-gal luminescence (AID 2044); format: functional, cell-based;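 also: intracellular parasites grown in NIH/3T3 mouse fibroblasts as host cells; luminescent beta-galactosidase reporter signal from transgenic T. cruzi replicating inside host cells; inhibitors lower the luminescence signal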
# [8] = cytotoxicity toward NIH3T3 fibroblasts, dose response, counter-screen, cell-based, ATP luminescence, mouse fibroblasts (AID 2010); format: functional;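 also: cells exposed to compound for about 90 hours before reading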
# [9] = target: T4, RNA-binding protein pos-1 (Caenorhabditis elegans, UniProt G5EF15); assay: inhibitors of POS-1/mex-3 RNA binding, dose response, biochemical, fluorescence polarization (AID 1964);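 also: purified POS-1 fused to maltose binding protein made in E. coli; potency of compounds blocking POS-1 binding to fluorescent RNA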
# T4 sequence (G5EF15 whole entry): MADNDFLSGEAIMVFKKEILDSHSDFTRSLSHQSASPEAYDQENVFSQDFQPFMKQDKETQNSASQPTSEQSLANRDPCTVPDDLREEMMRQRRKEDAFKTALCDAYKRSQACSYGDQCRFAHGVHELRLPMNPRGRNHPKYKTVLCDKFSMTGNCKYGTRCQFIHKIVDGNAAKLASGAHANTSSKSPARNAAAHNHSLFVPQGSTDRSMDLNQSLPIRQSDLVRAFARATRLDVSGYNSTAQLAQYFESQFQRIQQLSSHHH
# [10] = target: T5, Zinc finger protein mex-5 (Caenorhabditis elegans, UniProt Q9XUB2); assay: MEX-5/TCR-2 RNA interaction inhibitors, dose response, biochemical, C. elegans, fluorescence polarization (AID 1960)
# T5 sequence (Q9XUB2 whole entry): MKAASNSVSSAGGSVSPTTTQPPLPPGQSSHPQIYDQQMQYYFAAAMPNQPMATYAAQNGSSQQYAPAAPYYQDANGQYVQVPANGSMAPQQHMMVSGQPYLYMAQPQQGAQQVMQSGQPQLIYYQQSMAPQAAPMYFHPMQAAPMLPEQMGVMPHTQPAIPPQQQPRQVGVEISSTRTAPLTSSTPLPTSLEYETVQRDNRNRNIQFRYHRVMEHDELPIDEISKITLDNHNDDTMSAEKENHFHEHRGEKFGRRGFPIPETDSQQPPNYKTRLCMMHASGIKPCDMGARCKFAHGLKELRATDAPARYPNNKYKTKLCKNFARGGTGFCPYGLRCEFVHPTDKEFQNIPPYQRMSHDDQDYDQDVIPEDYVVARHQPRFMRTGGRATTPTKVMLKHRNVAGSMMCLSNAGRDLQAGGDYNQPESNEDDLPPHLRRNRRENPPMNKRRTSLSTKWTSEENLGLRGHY
# [11] = cytotoxicity in HPDE-C7 cells, cell-based, fluorescence, HTS (AID 430); format: functional; settings: Homo sapiens
# [12] = cytotoxicity in KRAS-transformed pancreatic duct cells, primary screen, cell-based, fluorescence, HTS (AID 431); format: functional; settings: Homo sapiens;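 also: cell line used: HPDE-C7K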
# Caspase-6 = target: T6, Caspase-6 (Homo sapiens, UniProt P55212); assay: human caspase-6 inhibitors, dose response, biochemical, VEID-R110 fluorescence, cherry-pick (AID 720632)
# T6 sequence (P55212 whole entry): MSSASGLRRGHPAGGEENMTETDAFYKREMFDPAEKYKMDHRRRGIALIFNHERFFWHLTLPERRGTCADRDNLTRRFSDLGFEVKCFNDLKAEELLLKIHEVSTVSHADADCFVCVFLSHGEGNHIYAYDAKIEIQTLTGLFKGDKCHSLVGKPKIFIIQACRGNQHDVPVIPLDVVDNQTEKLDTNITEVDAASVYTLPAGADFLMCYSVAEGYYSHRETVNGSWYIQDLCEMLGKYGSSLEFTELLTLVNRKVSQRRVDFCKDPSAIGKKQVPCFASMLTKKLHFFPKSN
# [13] = target: T7, Microphthalmia-associated transcription factor (Homo sapiens, UniProt O75030); assay: TRPM1 promoter luciferase signal decrease, dose response, MITF inhibitor project, cell-based, SK-MEL-5, cherry-picked, set 3 (AID 493073); format: functional
# T7 sequence (O75030 whole entry): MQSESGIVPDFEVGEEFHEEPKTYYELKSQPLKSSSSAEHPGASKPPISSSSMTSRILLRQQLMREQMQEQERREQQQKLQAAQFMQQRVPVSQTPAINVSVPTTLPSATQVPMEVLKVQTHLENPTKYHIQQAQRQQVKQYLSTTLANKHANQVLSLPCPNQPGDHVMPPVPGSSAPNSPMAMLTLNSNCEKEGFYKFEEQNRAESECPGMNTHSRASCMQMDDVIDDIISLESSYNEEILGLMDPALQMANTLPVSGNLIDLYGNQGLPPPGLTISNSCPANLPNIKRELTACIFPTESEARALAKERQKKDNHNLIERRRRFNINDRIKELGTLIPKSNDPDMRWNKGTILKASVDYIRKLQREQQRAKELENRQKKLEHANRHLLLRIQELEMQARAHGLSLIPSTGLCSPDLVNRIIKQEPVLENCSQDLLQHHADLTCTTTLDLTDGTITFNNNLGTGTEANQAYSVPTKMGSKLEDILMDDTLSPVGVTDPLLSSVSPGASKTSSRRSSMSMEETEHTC
# cells [14] = assay: cells
# cells [15] = format: functional
structure (smiles),measurement,setting,value
Cc1ccccc1OCCn1c(C)nc2ccccc21,AC50,INS1,8.1 µM (active)
same,EC50,[1],1.19 µM (active)
Cn1cccc1/C=C1/C(=O)NC(=O)N(Cc2ccc(F)cc2)C1=O,CC50,[2],> 40 µM (active)
COc1cccc(/C=C2\SC(=S)N(NS(=O)(=O)c3ccc(C)cc3)C2=O)c1OC,AC50,[3],9.05 µM (active)
same,EC50,[1],8.41 µM (active)
same,IC50,Genome polyprotein,36.2 µM (active)
CC(C)CC(NC(=O)/C(=C/c1ccco1)NC(=O)c1ccc(Br)o1)C(=O)O (stereo not drawn),EC50,[4],> 53 µM (inactive)
same,IC50,Protein Tat,> 100 µM (active)
same,IC50,[5],> 47.1 µM (inactive)
CCc1ccccc1N=C(S)N(Cc1cccc(C)c1)c1cccnc1,EC50,[6],> 50 µM (active)
CC(OC(=O)CC1CCCC1)C(=O)Nc1ccc(Cl)cn1 (stereo not drawn),CC50,[2],> 40 µM (active)
COc1ccccc1N1CCN(CC(O)COCCOc2ccc(Br)cc2)CC1 (stereo not drawn),CC50,[2],29.9 µM (active)
c1ccc(CN2CCN(Cc3c[nH]c4ccccc34)CC2)cc1,AC50,INS1,8.01 µM (active)
same,EC50,[7],0.277 µM (active)
same,EC50,[8],> 30 µM (not active)
same,EC50,[1],5.96 µM (active)
Cc1cccc(N2C(=O)/C(=C/c3ccc(CN(CCC#N)S(C)(=O)=O)o3)C(=O)NC2=S)c1,EC50,[9],67 µM (active)
same,IC50,Protein Tat,> 100 µM (active)
same,EC50,[10],41.2 µM (active)
Cc1ccc(-c2nnc(N3CCN(c4ccccn4)CC3)c3ccccc23)cc1,EC50,[11],16.5 µM (active)
same,EC50,[12],16.7 µM (active)
O=C(NN1C(=O)C2CC=C(Cl)CC2C1=O)c1ccncc1 (stereo not drawn),AC50,Caspase-6,16.5 µM (active)
CCCC1(c2ccccc2)NC(=O)N(CC(=O)Nc2ccccc2C(F)(F)F)C1=O (stereo not drawn),EC50,[6],> 50 µM (active)
Cc1ccc(S(=O)(=O)NCCC(=O)N2CCN(C/C=C/c3ccccc3)CC2)cc1,CC50,[2],> 40 µM (active)
O=C(Cc1ccccc1)N1CCCCN2[C@H](CO)[C@@H](c3ccc(C#Cc4ccccc4)cc3)[C@H]2C1,AC50,Caspase-6,47.3 µM (active)
Cc1ccc(OCC(=O)N/N=C/c2ccc([N+](=O)[O-])o2)cc1,EC50,[7],< 0.1 µM (active)
same,AC50,[13],8.9 µM (active)
same,EC50,[8],> 60 µM (not active)
same,EC50,cells [14],0.078 µM (active)
same,EC50,[6],> 50 µM (active)
same,IC50,cells [15],3.01 µM (active)
Cc1cc(/C=N/NC(=O)C(O)(c2ccccc2)c2ccccc2)c(C)n1-c1cccc(C(=O)O)c1,AC50,Caspase-6,1.78 µM (active)
Cc1ccsc1/C=N/Nc1ccc(C(=O)O)cc1,EC50,[6],> 50 µM (active)
